Assay results taken from patent US20240309015A1, “Methods for the Treatment of Fibrotic Disease” (SHY Therapeutics, LLC, priority 2021, published 2024).

Legend:
KRas G12C mutant = test: Ras GTP Binding Domain Inhibition Assay, KRas G12C mutant; conditions: at 20 μM; for KRas G12C mutant + SOS: % inh.: with SOS; for KRas G12C mutant: % inh.: without SOS
Description: (§1) A Ras Superfamily Activity Assay (as disclosed in International Application No. PCT/US2018/038613, filed Jun. 20, 2018, which is incorporated by reference in its entirety) was used as a specific assay to evaluate compounds against the following for the following Ras Superfamily proteins: KRas wild type, KRas Q61H mutant, KRas G12C mutant, KRas G12D mutant, Rac-1, and Rho-A.
(§2) Buffer-I: • 25 mM Tris-HCl, pH 7.4 • 27 mM KCl • 137 mM NaCl • 1 mM MgCl2 • 1 mM DTT
(§3) Buffer-IL: • 50 mM Tris-HCl, pH 7.0 • 1 mM MgCl2 • 1 mM DTT
(§4) The small GTPases proteins: KRas wild type. KRas Q61H mutant, KRas G12C mutant, KRas G12D mutants, Rac-1, and Rho-A were expressed as His-tagged proteins. In addition, the Guanosine nucleotide Exchange Factor (GEF) Sos protein (residues 556-1049) was expressed as a His-tagged protein. In cells, the guanine nucleotide exchange factor Sos protein promotes activation of Ras proteins by stimulating an exchange of GDP for GTP. The inclusion of Sos to the Ras GTP binding domain inhibition assay may be considered as an alternative representation of physiological cellular conditions for evaluating the inhibitory activity of some of the tested small molecules.
(§5) For the assay, all purified small GTPases proteins were diluted in Buffer-I or Buffer-II to a final concentration of 10-30 μg/mL. 200 μL of each diluted protein was added to a nickel-coated 96-well plate and incubated overnight at 4° C. Then the protein solution was discarded and 200 μL of Buffer-I or Buffer-II was added to each well in the presence of 1% DMSO. Compounds to be tested were added to the protein-coated wells at final concentration of 20 μM, and incubated for 3 hours at room temperature with and without 10-30 μg/mL of Sos added to the final hour of the incubation. When performing IC50 measurements a serial dilution of all tested concentrations was added. Then Cy3-GTP or Cy5-GTP was added to each well to a final concentration of 100 nM. The labeled GTP was incubated for 45 minutes at room temperature. Following GTP incubation, wells were washed 3× in Buffer-I or Buffer-II and 200 μL of Buffer-I or Buffer-II was added to each well. Following washes, the amount of bound labeled-GTP was measured using a SpectraMax M3 (Molecular Devices).

TNFα = test: Mouse TNF Alpha Quantification Assay (LPS-stimulated RAW 264.7); type: cell-based; parameters: dose or concentration left out as unconfirmed; conditions: RAW264.7, ELISA, read-out: TNFα: % inh.
Rho-A = test: Ras GTP Binding Domain Inhibition Assay, Rho-A; conditions: at 20 μM; for Rho-A: % inh.: without SOS
Description: as §1, §2, §3, §4, §5

IL-6 = test: Mouse IL6 Quantification Assay (LPS-stimulated RAW 264.7); type: cell-based; parameters: dose or concentration left out as unconfirmed; conditions: RAW264.7, ELISA, read-out: IL-6: % inh.
KRas G12D mutant = test: Ras GTP Binding Domain Inhibition Assay, KRas G12D mutant; conditions: at 20 μM; for KRas G12D mutant + SOS: % inh.: with SOS; for KRas G12D mutant: % inh.: without SOS
Description: as §1, §2, §3, §4, §5

KRas wild type = test: Ras GTP Binding Domain Inhibition Assay, KRas wild type; conditions: at 20 μM; for KRas wild type + SOS: % inh.: with SOS; for KRas wild type: % inh.: without SOS
Description: as §1, §2, §3, §4, §5

SMILES	KRas G12C mutant + SOS: % inh. (KRas G12C mutant)	KRas G12C mutant: % inh. (KRas G12C mutant)	inhibition (TNFα) [%]	Rho-A: % inh. (Rho-A)	inhibition (IL-6) [%]	KRas G12D mutant + SOS: % inh. (KRas G12D mutant; Table 7)	KRas G12D mutant + SOS: % inh. (KRas G12D mutant; Table 8)	KRas G12D mutant: % inh. (KRas G12D mutant; Table 7)	KRas G12D mutant: % inh. (KRas G12D mutant; Table 8)	KRas wild type + SOS: % inh. (KRas wild type)	KRas wild type: % inh. (KRas wild type)	Rho-A + SOS: % inh. (Rho-A; with SOS)
COCC1CN(c2nc(-c3nccn3C)nc3sc(-c4ccn(C(C)C)n4)c(C)c23)CCO1 (racemic) [Compound 15, rac-4-(6-(1-Isopropyl-1H-pyrazol-3-yl)-5-methyl-2-(1-methyl-1H-imidazol-2-yl)thieno[2,3-d]pyrimidin-4-yl)-2-(methoxymethyl)morpholine]	D (D = 76-100% inhibition)	C (C = 46-75% inhibition)	76 to 100	D (D = 76-100% inhibition)	46 to 75	D (D = 76-100% inhibition)	D (D = 76-100% inhibition)	D (D = 76-100% inhibition)	D (D = 76-100% inhibition)	D (D = 76-100% inhibition)	D (D = 76-100% inhibition)	
COCCO[C@H]1CC[C@@H](Nc2nc(-c3nccn3C)nc3sc(-c4ccn(C(C)C)n4)c(C)c23)C1 (racemic) [Compound 20, rac-6-(1-Isopropyl-1H-pyrazol-3-yl)-N-((1R,3S)-3-(2-methoxyethoxy)cyclopentyl)-5-methyl-2-(1-methyl-1H-imidazol-2-yl)thieno[2,3-d]pyrimidin-4-amine]	D (D = 76-100% inhibition)	D (D = 76-100% inhibition)	46 to 75	C (C = 46-75% inhibition)	76 to 100	D (D = 76-100% inhibition)	D (D = 76-100% inhibition)	D (D = 76-100% inhibition)	D (D = 76-100% inhibition)	D (D = 76-100% inhibition)	D (D = 76-100% inhibition)	
COCC1(OC)CCN(c2nc(-c3nccn3C)nc3sc(-c4ccn(C(C)C)n4)c(C)c23)C1 (racemic) [Compound 27, rac-6-(1-Isopropyl-1H-pyrazol-3-yl)-4-(3-methoxy-3-(methoxymethyl)pyrrolidin-1-yl)-5-methyl-2-(1-methyl-1H-imidazol-2-yl)thieno[2,3-d]pyrimidine]	D (D = 76-100% inhibition)	D (D = 76-100% inhibition)	76 to 100	C (C = 46-75% inhibition)	76 to 100	D (D = 76-100% inhibition)	D (D = 76-100% inhibition)	C (C = 46-75% inhibition)	C (C = 46-75% inhibition)	D (D = 76-100% inhibition)	D (D = 76-100% inhibition)	
COCCn1ccc(-c2sc3nc(-c4nccn4C)nc(N[C@@H]4CC[C@H](OC)C4)c3c2C)n1 (racemic) [Compound 39, rac-N-((1R,3S)-3-Methoxycyclopentyl)-6-(1-(2-methoxyethyl)-1H-pyrazol-3-yl)-5-methyl-2-(1-methyl-1H-imidazol-2-yl)thieno[2,3-d]pyrimidin-4-amine]	D (D = 76-100% inhibition)	D (D = 76-100% inhibition)	0	C (C = 46-75% inhibition)	26 to 45	D (D = 76-100% inhibition)	D (D = 76-100% inhibition)	C (C = 46-75% inhibition)	C (C = 46-75% inhibition)	D (D = 76-100% inhibition)	D (D = 76-100% inhibition)	
COc1cccc(-c2sc3nc(-c4nccn4C)nc(N[C@@H]4CC[C@@H](OC)C4)c3c2C)c1F (racemic) [Compound 43, rac-6-(2-Fluoro-3-methoxyphenyl)-N-((1R,3R)-3-methoxycyclopentyl)-5-methyl-2-(1-methyl-1H-imidazol-2-yl)thieno[2,3-d]pyrimidin-4-amine]	D (D = 76-100% inhibition)	B (B = 26-45% inhibition)	26 to 45	B (B = 26-45% inhibition)	76 to 100	D (D = 76-100% inhibition)	D (D = 76-100% inhibition)	A (A = 1-25% inhibition)	A (A = 1-25% inhibition)	D (D = 76-100% inhibition)	B (B = 26-45% inhibition)	
COCCn1ccnc1-c1nc(N[C@H]2C[C@@H](OC)C2)c2c(-c3ccccc3)c(-c3ccn(C)n3)sc2n1 [Compound 13, N-((1s,3s)-3-methoxycyclobutyl)-2-(1-(2-methoxyethyl)-1H-imidazol-2-yl)-6-(1-methyl-1H-pyrazol-3-yl)-5-phenylthieno[2,3-d]pyrimidin-4-amine]	D (D = 76-100% inhibition)	D (D = 76-100% inhibition)		D (D = 76-100% inhibition)		D (D = 76-100% inhibition)	D (D = 76-100% inhibition)	C (C = 46-75% inhibition)	C (C = 46-75% inhibition)	D (D = 76-100% inhibition)	D (D = 76-100% inhibition)	D (D = 76-100% inhibition)
CO[C@H]1C[C@H](CNc2nc(-c3nccn3C)nc3sc(-c4ccn(C(C)C)n4)c(C)c23)C1 [Compound 16, 6-(1-Isopropyl-1H-pyrazol-3-yl)-N-(((1r,3r)-3-methoxycyclobutyl)methyl)-5-methyl-2-(1-methyl-1H-imidazol-2-yl)thieno[2,3-d]pyrimidin-4-amine]	C (C = 46-75% inhibition)	C (C = 46-75% inhibition)	1 to 25	C (C = 46-75% inhibition)	46 to 75	C (C = 46-75% inhibition)	C (C = 46-75% inhibition)	B (B = 26-45% inhibition)	B (B = 26-45% inhibition)	C (C = 46-75% inhibition)	D (D = 76-100% inhibition)	
CO[C@H]1CNC[C@@H](Nc2nc(-c3nccn3C)nc3sc(-c4ccn(C(C)C)n4)cc23)C1 [Compound 28, 6-(1-Isopropyl-1H-pyrazol-3-yl)-N-((3S,5R)-5-methoxypiperidin-3-yl)-2-(1-methyl-1H-imidazol-2-yl)thieno[2,3-d]pyrimidin-4-amine]			46 to 75		76 to 100							
